# According to patent publication US20070197658A1, “Polyamines and their use as antibacterial and sensitizing agents” (priority 2006, published 2007):
# Values joined by “and” are separate entries in the source; they are usually repeats but may differ in a detail not shown here. Equal entries are not always repeated.
# Tests used:
# human serum albumin = human serum albumin (Homo sapiens, UniProt P02768); assay: biochemical; details: KD for HSA, isothermal titration calorimetry; single-site model
# [1] = test system: LPS-induced nitric oxide production in murine macrophages; assay: NO inhibition, compound solubilized in DMSO or in HSA; type: cell-based, mouse; details: DMSO vs HSA solubilization (FIG. 7C)
# E. coli ATCC 9637 [2] = assay: Effect of acylpolyamines on MIC of rifampicin (sensitization); type: cell-based, Escherichia coli; parameters: key to Sensitization to Rifampin: fold sensitization = MIC rifampicin alone / MIC with 10 μM compound; details: E. coli strain 9637 preincubated with 10 μM of compound; MIC of rifampicin
# Procedure: E. coli ATCC 9637 was seeded in MH broth in chequerboard format in a 384-well plate containing a constant concentration of compound and varying doses of rifampicin. Bacterial growth was monitored by turbidimetry at 600 nm. PMBN and melittin were used as positive controls. Wells containing no test-compound served as negative control. […] Fold sensitization was calculated as MICRifampicin alone/MICRifampicin+10μM Compound.
# Perturbation of the outer membrane permeability barrier greatly sensitizes Gram negative organisms to otherwise impermeable hydrophobic solutes, rifampicin being a classic example To determine the effect of acylpolyamines on the MIC of hydrophobic antibiotic, rifampicin, E. coli strain 9637 was used. Overnight cultures of E. coli grown in MHB preincubated with 10 μM of acylpolyamines were added to serially diluted rifampicin in a 384-well microtiter plate. After incubation at 37° C. overnight, the MIC was determined. Controls included PMBN and melittin (positive) and rifampicin alone (negative). All experiments were run in triplicate.
# E. coli ATCC 9637 [3] = assay: microbe, parasite or virus in culture
# Procedure: (§1) An equal volume of a suspension of either E. coli ATCC 9637 (FIG. 6A) or S. aureus ATCC 13709 (FIG. 6B) in 2× Mueller-Hinton broth was added using an automated liquid dispensing system to a 384 well plate, and bacterial growth was measured by absorptimetry as described in Materials and Methods.
# (§2) In this example, E. coli strain 9637 and S. aureus strain 13709 were procured from ATCC (Manassas, Va.). For IM permeability assays, E. coli ML-35 (ATCC 43827), a lactose permease-deficient strain with constitutive cytoplasmic β-galactosidase activity was used (26). Calcium chloride transformation of E. coli ML-35 was performed using the plasmid vector pBR322 (6), encoding tetracycline and ampicillin resistance genes (Promega, Madison, Wis.). The transformed strain, E. coli ML-35p, selected by ampicillin resistance, was utilized for the OM permeabilization assay. E. coli ML-35p was maintained on trypticase soy agar plates with 50 μg/ml of ampicillin.
# (§3) Minimum inhibitory concentrations of the acylpolyamines were determined by broth microdilution method (1) as per NCCLS guidelines. Mid-log phase Mueller-Hinton broth (MHB; non-cation supplemented) cultures of organisms (40 μl; OD600nm adjusted to 0.5 AU, and diluted ten-fold) were added to equal volumes of two-fold serially diluted acylpolyamines in a 384-well microtiter plate with the help of a Biotek Precision 2000 automated microplate pipetting system. The MICs of rifampicin, polymyxin B (PMB), polymyxin B nonapeptide (PMBN), naphthylacetyl spermine trihydrochloride and methoctramine tetrahydrochloride (Sigma, St. Louis, Mo.) were included as reference compounds for comparison of activity. The microtiter plates were sealed and incubated overnight at 37° C. The plates were read at an absorbance of 600 nm. The lowest concentration of an agent inhibiting growth of the organisms was recorded as the MIC.
# S. aureus ATCC 13709 = assay: microbe, parasite or virus in culture
# Procedure: as §1, §2, §3
# human whole blood = assay: Hemolysis in fresh whole human blood (released hemoglobin, 570 nm); type: cell-based; details: fresh undiluted EDTA human blood, 37° C., 30 min
# Procedure: Melittin was used as a positive control.
# 1:233-245 (2004). Erythrocyte damage was measured using two different techniques. […] Biophys. Acta 1123:269-274 (1992).
# [4] = test system: E. coli ML-35p (OM) / E. coli ML-35 (IM); type: cell-based, Escherichia coli; details: nitrocefin and ONPG hydrolysis
# Procedure: OM permeabilizing activity was determined using E. coli ML-35p (parent i^− z^+ y^− ATCC 43827 transformed with pBR322 vector encoding periplasmic β-lactamase); the leakage of periplasmic β-lactamase activity was quantified using nitrocefin as a chromogenic substrate. IM permeabilizing activity was determined using E. coli ML-35 using o-nitrophenyl-β-D-galactopyranoside as the substrate to determine the β-galactosidase activity. In all experiments, PMB, PMBN, and melittin were used as reference compounds.
# Nitrocefin (Calbiochem, San Diego, Calif.) was used for the determination of periplasmic β-lactamase activity since PADAC has been reported to be frequently insensitive to β-lactamase activity in clinically relevant strains of Staphylococcus. […] Harvested mid-log phase cultures of E. coli ML-35p (OD600nm adjusted to 0.5 AU) grown in trypticase soy broth were washed thrice with normal saline (0.9%). Nitrocefin was added to a final concentration of 50 μg/ml to the washed bacterial suspension, which was then added to the serially diluted compounds in a 384-well microtiter plate as described earlier. […] After various times of incubation at 37° C., β-lactamase activity was measured spectrophotometrically at 486 nm using an automated Spectramax M2 instrument (Molecular Devices, Sunnyvale, Calif.).
# The IM permeability was measured using o-nitrophenyl-β-D-galactopyranoside (“ONPG”; Sigma, St. Louis, Mo.) as the substrate to determine the β-galactosidase activity. […] Washed cultures of E coli ML-35 mixed with 1.5 mM of ONPG in normal saline (0.9%) were added to serially diluted compounds in a 384-well microtiter plate. PMBN and melittin were used as the controls. The production of o-nitrophenol was quantified absorptimetrically at 420 nm after an incubation period of 1 hour at 37° C.
# OM and IM permeability were determined respectively from dose-response curves of nitrocefin and ONPG hydrolysis rates as described in Lehrer et al., Concurrent assessment of inner and outer membrane permeabilization and bacteriolysis in E. coli by multiple-wavelength spectrophotometry, J. Immunol.
# Sequence of human serum albumin (P02768 25-609): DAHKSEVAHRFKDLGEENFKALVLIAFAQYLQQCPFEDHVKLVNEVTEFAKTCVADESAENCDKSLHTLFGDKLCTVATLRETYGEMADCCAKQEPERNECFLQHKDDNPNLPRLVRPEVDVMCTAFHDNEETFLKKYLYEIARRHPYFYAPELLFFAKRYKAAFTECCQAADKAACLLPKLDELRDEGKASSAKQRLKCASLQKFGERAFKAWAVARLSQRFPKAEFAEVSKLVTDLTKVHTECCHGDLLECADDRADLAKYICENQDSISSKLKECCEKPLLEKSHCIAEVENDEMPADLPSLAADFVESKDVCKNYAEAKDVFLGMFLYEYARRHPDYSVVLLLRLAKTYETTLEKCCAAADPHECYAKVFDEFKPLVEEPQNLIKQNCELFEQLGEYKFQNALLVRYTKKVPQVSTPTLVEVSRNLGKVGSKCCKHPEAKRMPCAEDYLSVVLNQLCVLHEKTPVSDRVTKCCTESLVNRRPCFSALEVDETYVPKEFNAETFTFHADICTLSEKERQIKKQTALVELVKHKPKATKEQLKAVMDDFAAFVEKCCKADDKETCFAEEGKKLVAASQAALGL
structure (smiles),measurement,setting,value
CCCCCCCCCCCCCCC(=O)NCCCNCCCNCCCCNCCCN [Compound 4e],Kd,human serum albumin,1980 nM and ~2000 nM
same,potency of NO inhibition solubilized in DMSO or in HSA,[1],identical potency
same,Sensitization to Rifampin,E. coli ATCC 9637 [2],7.81
same,MIC,"E. coli ATCC 9637 [3]; Escherichia coli, ATCC9637",31.2 µM and 29.3 µg/mL
same,MIC,"S. aureus ATCC 13709; Staphylococcus aureus, ATCC13709",15.6 µM and 14.6 µg/mL
"CC[C@H](C)[C@H](NC(=O)CN)C(=O)NCC(=O)N[C@@H](C)C(=O)N[C@H](C(=O)N[C@@H](CC(C)C)C(=O)N[C@@H](CCCCN)C(=O)N[C@H](C(=O)N[C@@H](CC(C)C)C(=O)N[C@H](C(=O)N[C@H](C(=O)NCC(=O)N[C@@H](CC(C)C)C(=O)N1CCC[C@H]1C(=O)N[C@@H](C)C(=O)N[C@@H](CC(C)C)C(=O)N[C@H](C(=O)N[C@@H](CO)C(=O)N[C@@H](Cc1c[nH]c2ccccc12)C(=O)N[C@H](C(=O)N[C@@H](CCCCN)C(=O)N[C@@H](CCCNC(=N)N)C(=O)N[C@@H](CCCCN)C(=O)N[C@@H](CCCNC(=N)N)C(=O)N[C@@H](CCC(N)=O)C(=O)N[C@@H](CCC(N)=O)C(N)=O)[C@@H](C)CC)[C@@H](C)CC)[C@@H](C)O)[C@@H](C)O)C(C)C)C(C)C [Melittin, melittin, reference compound]",hemolysis in human whole blood,human whole blood,caused hemolysis at low micromolar concentrations
same,membrane-permeabilizing activity (OM and IM),[4],potently membrane-permeabilizing
same,MIC,"E. coli ATCC 9637 [3]; E. coli ATCC 9637, Mueller-Hinton broth, overnight 37° C.",175 μM and 498.1 μg/ml
same,MIC,"S. aureus ATCC 13709; S. aureus ATCC 13709, Mueller-Hinton broth, overnight 37° C.",5.5 μM and 15.6 μg/ml
